According to US9938261B2, “Heterocyclic compounds and methods of use thereof” (AMBIT BIOSCIENCES CORPORATION, priority 2011, dated 2018):

Experiments:
KIT = target: T1, KIT (Homo sapiens, UniProt P10721); test: Competition binding assay, KIT Kd; conditions: competition binding
T1 construct: made in house
Summary of the method: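 Kinases, either T7 phage fusions or HEK-293-expressed and DNA-tagged, competed with test compounds for immobilized biotinylated affinity ligand on streptavidin beads in binding buffer (20% SeaBlock, 0.17×PBS, 0.05% Tween 20, 6 mM DTT). After 1 hour at room temperature, bead-bound kinase was eluted and quantified by qPCR; Kd from eleven-point threefold dilutions.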

M-NFS-60 cells = test: M-NFS-60 cell proliferation assay (Alamar Blue); assay type: cell-based, mouse; conditions: Mus musculus; M-NFS-60 cell proliferation; read-out: CSF1R M-NFS-60 CTB:IC50
Summary of the method: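 Alamar Blue reduction (3 h; 560/590 nm) measured viability after 72 h, 37 °C treatment with nine half-log compound concentrations at 0.5% DMSO. Cells: M-CSF-dependent (20 ng/mL) murine M-NFS-60 in RPMI plus 10% FBS. IC50s, averaged from duplicates, reflect half-maximal inhibition of proliferation relative to control.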

[1] = target: kinase panel containing either 386 or 392 distinct kinases; test: Kinase selectivity score S10 from competition binding panel; conditions: 10 μM, panel of 386 or 392 distinct kinases
Summary of the method: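 S10 is the number of kinases with percent-of-control under 10, divided by all distinct wild-type kinases tested, from a single 10 μM concentration. Binding measured by qPCR of kinase recovered from ligand-coated beads after 1 h equilibrium at room temperature; kinases were phage fusions or DNA-tagged HEK-293 products.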

T1 sequence (P10721 26-976): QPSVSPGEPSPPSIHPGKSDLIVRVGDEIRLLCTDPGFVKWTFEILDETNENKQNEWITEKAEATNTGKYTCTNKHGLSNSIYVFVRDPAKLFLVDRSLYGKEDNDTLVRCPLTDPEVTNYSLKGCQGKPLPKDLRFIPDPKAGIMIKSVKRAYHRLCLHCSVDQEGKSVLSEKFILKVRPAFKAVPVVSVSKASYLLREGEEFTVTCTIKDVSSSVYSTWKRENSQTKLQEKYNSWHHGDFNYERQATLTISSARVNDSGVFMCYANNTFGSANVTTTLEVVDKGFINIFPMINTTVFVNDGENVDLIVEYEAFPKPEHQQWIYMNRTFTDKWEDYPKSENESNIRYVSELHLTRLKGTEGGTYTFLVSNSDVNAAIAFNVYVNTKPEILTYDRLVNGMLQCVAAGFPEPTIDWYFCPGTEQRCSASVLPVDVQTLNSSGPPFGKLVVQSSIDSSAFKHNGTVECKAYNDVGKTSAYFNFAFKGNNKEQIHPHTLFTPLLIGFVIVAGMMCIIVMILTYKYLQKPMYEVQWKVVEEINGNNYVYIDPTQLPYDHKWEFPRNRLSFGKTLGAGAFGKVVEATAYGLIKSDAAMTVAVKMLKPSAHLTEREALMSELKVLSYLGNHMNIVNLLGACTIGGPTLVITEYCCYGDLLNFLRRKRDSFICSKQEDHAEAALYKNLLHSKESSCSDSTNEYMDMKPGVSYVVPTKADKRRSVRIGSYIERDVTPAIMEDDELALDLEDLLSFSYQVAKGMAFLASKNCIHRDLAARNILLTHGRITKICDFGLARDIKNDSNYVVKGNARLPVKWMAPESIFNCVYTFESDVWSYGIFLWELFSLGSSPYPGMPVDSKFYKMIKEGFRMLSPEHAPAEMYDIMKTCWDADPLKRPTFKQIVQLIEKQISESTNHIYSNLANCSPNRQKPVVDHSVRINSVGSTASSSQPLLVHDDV

| Kd (KIT) [nM] | Kinase specificity S(10) [1] | SMILES | IC50 (M-NFS-60 cells) [nM] |
| --- | --- | --- | --- |
| 100 to 500 | A (A≤0.01) | CC(C)(O)c1cnc2c(c1)ncn2Cc1ccc2nc(N[C@@H]3CCCC[C@H]3O)sc2c1 [Example 109, (1R,2R)-2-((6-((6-(2-hydroxypropan-2-yl)-3H-imidazo[4,5-b]pyridin-3-yl)methyl)benzo[d]thiazol-2-yl)amino)cyclohexanol] | 50 to 400 |
| ≤ 100 | A (A≤0.01) | C=Cc1ccc2c(c1)ncn2Cc1ccc2nc(N[C@@H]3CCC[C@@H](O)[C@H]3O)sc2c1 [Example 232, (1R,2S,3R)-3-((6-((5-vinyl-1H-benzo[d]imidazol-1-yl)methyl)benzo[d]thiazol-2-yl)amino)cyclohexane-1,2-diol] | ≤ 50 |
| 100 to 500 | A (A≤0.01) | C#Cc1ccc2c(c1)ncn2Cc1ccc2nc(N[C@@H]3CCCC[C@H]3O)sc2c1 [Example 121, (1R,2R)-2-((6-((5-ethynyl-1H-benzo[d]imidazol-1-yl)methyl)benzo[d]thiazol-2-yl)amino)cyclohexanol] | 50 to 400 |
| 100 to 500 | A (A≤0.01) | CC(=O)c1ccc2c(c1)ncn2Cc1ccc2nc(N[C@@H]3CCCC[C@H]3O)sc2c1 [Example 110, 1-(1-((2-(((1R,2R)-2-hydroxycyclohexyl)amino)benzo[d]thiazol-6-yl)methyl)-1H-benzo[d]imidazol-5-yl)ethanone] | 50 to 400 |
| ≤ 100 | B (0.01<B≤0.02) | N#Cc1ccc2ncc(Cc3ccc4nc(N[C@@H]5CCCC[C@H]5O)sc4c3)n2n1 [Example 221, 3-((2-(((1R,2R)-2-hydroxycyclohexyl)amino)benzo[d]thiazol-6-yl)methyl)imidazo[1,2-b]pyridazine-6-carbonitrile] | ≤ 50 |
| ≤ 100 | A (A≤0.01) | O[C@@H]1[C@H](O)CCC[C@H]1Nc1nc2ccc(Cn3cnc4cc(N5CCOCC5)ccc43)cc2s1 [Example 235, (1R,2S,3R)-3-((6-((5-morpholino-1H-benzo[d]imidazol-1-yl)methyl)benzo[d]thiazol-2-yl)amino)cyclohexane-1,2-diol] | 50 to 400 |
| ≤ 100 | B (0.01<B≤0.02) | O[C@@H]1CCCC[C@H]1Nc1nc2ccc(Cn3cnc4cc(I)cnc43)cc2s1 [Example 146, (1R,2R)-2-((6-((6-iodo-3H-imidazo[4,5-b]pyridin-3-yl)methyl)benzo[d]thiazol-2-yl)amino)cyclohexanol] | 50 to 400 |
| ≤ 100 | B (0.01<B≤0.02) | O[C@@H]1CCCC[C@H]1Nc1nc2ccc(Cc3cnc4ccc(Cl)nn34)cc2s1 [Example 158, (1R,2R)-2-((6-((6-chloroimidazo[1,2-b]pyridazin-3-yl)methyl)benzo[d]thiazol-2-yl)amino)cyclohexanol] | ≤ 50 |
| 100 to 500 | A (A≤0.01) | O[C@@H]1CCCC[C@H]1Nc1nc2ccc(Cn3cnc4cncnc43)cc2o1 [Example 118, (1R,2R)-2-((6-((9H-purin-9-yl)methyl)benzo[d]oxazol-2-yl)amino)cyclohexanol] | 400 to 1500 |
| ≤ 100 | B (0.01<B≤0.02) | O[C@@H]1CCCC[C@H]1Nc1nc2ccc(Cc3cnc4cccnn34)cc2s1 [Example 131, (1R,2R)-2-((6-(imidazo[1,2-b]pyridazin-3-ylmethyl)benzo[d]thiazol-2-yl)amino)cyclohexanol] | ≤ 50 |
| ≤ 100 | A (A≤0.01) | O[C@@H]1CCCC[C@H]1Nc1nc2ccc(Cn3cnc4cc(-n5cccn5)ccc43)cc2s1 [Example 160, (1R,2R)-2-((6-((5-(1H-pyrazol-1-yl)-1H-benzo[d]imidazol-1-yl)methyl)benzo[d]thiazol-2-yl)amino)cyclohexanol] | ≤ 50 |
